What all share (format): cell-based
In assay [1] the test system is mouse neutrophils. The experiment in a line: Isoluminol chemiluminescence ROS assay, mouse neutrophils. The note with it: mean+/−SD. The method, then: (§1) Isoluminol-based chemiluminescence assays were performed in HGCa in the presence of horseradish peroxidase (HRP) and isoluminol (both from Sigma-Aldrich) in a temperature-controlled Multilabel Count Victor X5 (Perkin Elmer). Assays were run in dark 96 well plates precoated with 250 μg/ml human fibrinogen in HGCa containing (final concentration): 100 μM isoluminol and 8 U/ml HRP. After addition of 1×10^5 human neutrophils or 7.5×10^5 mouse neutrophils, plates were left at 37° C. for 5-10 min and the reaction started by addition of the stimulus. Light emission was recorded every minute.
(§2) We used the chemotactic peptide fMLP as positive control. […] Data are mean+/−SD for three independent experiments.
Data are mean+/−SD counts per second.

A further assay relates to human primary PMNs. The experiment in a line: Static adhesion of human primary PMNs to ICAM-1 with signaling inhibitors. To be noted: 50 nM fMLP, 1 min. On the procedure: As a model system, human primary PMNs were isolated form healthy donors stimulated to very rapid adhesion to purified human ICAM-1, ligand for the β2 integrins LFA-1 and Maci. fMLP (the classical chemoattractant) was the positive control. […] PMNs were treated for 30 min. with different concentrations of inhibitors followed by stimulation for 1 min with 50 nM fMLP or with 10 μM Aβ. The number of adherent cells was quantified by computer-assisted evaluation. Statistical analysis was SD.

Assay [2] relates to human neutrophils. The experiment in a line: Isoluminol chemiluminescence ROS assay, human neutrophils. To be noted: human neutrophils on fibrinogen, mean+/−SD. On the procedure:
One of the mechanisms of neuronal damage by beta-amyloid in Alzheimer's disease is the generation of reactive oxygen species (ROS). We determined whether Aβ1-42 oligomers induce ROS production in neutrophils by using a chemiluminescence assay.
as §1, §2

Assay [3] deals with human neutrophils. The experiment in a line: Rapid adhesion of human neutrophils to fibrinogen and ICAM-1. To be noted: 0.1 μM, mean+/−SD. The text has this:
(§3) All data are expressed as the mean+/−SD of bound cells in 0.2 mm^2 from three independent experiments made in duplicate.

Assay [4] concerns human neutrophils. The experiment in a line: Rapid human neutrophil adhesion to ICAM-1, inhibition by bocMLF and PTx. To be noted: 0.1 μM fMLP. On the procedure: It is known that one of the receptors for Aβ is the receptor for fMLP, formylpeptide chemotactic receptor (FPR). To evaluate the contribution of this GPCR receptor on Aβ-dependent neutrophil adhesion, we inhibited its function using boc-MLF, a formyl-peptide chemotactic receptor antagonist. Human neutrophils were incubated for 2 minutes with buffer (control) or with oligomeric Aβ. 0.1 μM fMLP was used as a positive control. Values are expressed as the mean counts of bound cells in 0.2 mm^2 from three independent experiments in duplicate. Error bars represent SD. […] To exclude the possibility that rapid adhesion triggering was a consequence of a generic plasma membrane alteration due to the lipophilic nature of Aβ, we evaluated rapid adhesion in lymphocytes, which are known to lack fMLP receptors.

Another assay relates to neutrophils. The experiment in a line: Rapid adhesion of neutrophils, soluble versus fibrillary Aβ1-42. The note with it: fMLP, concentration not given, mean+/−SD. The source says: Although two-times less efficient than the soluble form, fibrillary Aβ triggered a significant increase of rapid neutrophil adhesion on both ICAM-1 and fibrinogen (Table 8; data are expressed as the mean+/−SD of bound cells in 0.2 mm^2 from three independent experiments made in duplicate).

The test system of assay [5] is mouse neutrophils. The experiment in a line: Rapid adhesion of mouse neutrophils to fibrinogen and ICAM-1. To be noted: fMLP 1 μM, mean+/−SD.
Source text: as §3

The next assay concerns LFA-1. The experiment in a line: LFA-1 affinity state in human neutrophils (conformer-specific antibodies, cytofluorimetry). The note with it: 0.1 μM, 10 s, mean fluorescence intensity, ctrl = 1. The source says: Neutrophil arrest is rapidly triggered by chemokines or other chemoattractants and is mediated by the binding of LFA-1 integrin to its vascular ligand ICAM-1. Ligation of specific heterotrimeric GPCRs by chemokines induces integrins to undergo a dramatic transition from a bent low-affinity conformation to extended intermediate- and high-affinity conformations, which leads to opening of the ligand-binding pocket. We hypothesized that Aβ may trigger intermediate and/or high affinity state of LFA-1 integrin and studied the effect of Aβ1-42 oligomers on human LFA-1 affinity using KIM127 and 327A conformer-specific antibodies for intermediate- and high-affinity state respectively.
The cells were stimulated for 10 s with 0.5 μmol/L of CXCL12, 0.1 μM fMLP, 20 μM Aβ1-42, or 20 μM Aβ42-1 under stirring at 37° C. After rapid washing, cells were stained with FITC-conjugated secondary polyclonal antibody and analyzed by cytofluorimetric quantification. Data are mean fluorescence intensity +/−SD from three independent experiments.

Where “and” joins values, the source holds several entries; their conditions need not be identical. Equal entries are not always repeated.

As to fMLP, the “ROS generation (chemiluminescence)” value came to 599 ± 199 counts per second in the assay with mouse neutrophils [1] (1 min); 231 ± 91 counts per second with mouse neutrophils [1] (2 min); 90 ± 17 counts per second in the assay with mouse neutrophils [1] (3 min); 65 ± 36 counts per second in the assay on mouse neutrophils [1] (4 min); 59 ± 54 counts per second in the assay on mouse neutrophils [1] (5 min); 908 ± 137 in the assay with human neutrophils [2] (1 min). Also, the “ROS generation (chemiluminescence)” value in the assay with human neutrophils [2] (2 min) was 783 ± 108; in the assay with human neutrophils [2] (3 min), 515 ± 103; in the assay on human neutrophils [2] (4 min), 325 ± 158; with human neutrophils [2] (5 min) it was 272 ± 134. In addition, in the assay on human primary PMNs, the “Adherent hPMNs to ICAM-1, fMLP, Mean, Control (no inhibitor)” value was 444.6 and 500.8 and 433.5 and 463.1 and 484.1 and 486.8. The “Rapid adhesion to Fibrinogen” value with human neutrophils [3] is 361.5 ± 88.2 bound cells in 0.2 mm^2; in the assay on neutrophils, 285.5 ± 14.6 bound cells in 0.2 mm^2; in the assay on mouse neutrophils [5], 72.40 ± 14.33 bound cells in 0.2 mm^2. In addition, the “Rapid adhesion to ICAM-1” value in the assay on human neutrophils [3] is reported as 203.8 ± 29.2 bound cells in 0.2 mm^2; in the assay with neutrophils, 578.5 ± 66.5 bound cells in 0.2 mm^2; in the assay with mouse neutrophils [5] it was 183.6 ± 23.9 bound cells in 0.2 mm^2. In addition, in the assay with human neutrophils [4], the “Neutrophil adhesion to ICAM-1, stimulus alone (Ctrl, no inhibitor)” value is 497.1 ± 33.3 bound cells in 0.2 mm^2 and 484.1 ± 39.7 bound cells in 0.2 mm^2. Also, the “327A (high-affinity state of LFA-1)” value in the assay on LFA-1 is listed as 4.35 ± 0.63. Further, the “KIM127 (intermediate-affinity state of LFA-1)” value with LFA-1 was determined as 2.94 ± 0.21.
